“Also recorded” adds a separate entry of the source.
Assays:
[1] = system: Human non-small cell lung carcinoma cells, A549; experiment: Cytotoxicity by counting cells after 72 h, Taxol-sensitive cells; format: cell-based; settings: for IC50: Homo sapiens, A549, 72 h; for cytotoxicity (in words): sensitive cell lines (A549, SKOV3)
Procedure: Taxol-resistant and sensitive cell lines were seeded into 12-well plates at a density of 5×10^4 cells per well and allowed a period of 12 h for attachment prior to treatment. […] Cells were then trypsinized and counted (Coulter counter model ZF0031, Coulter Corp., Miami, Fla.).

[2] = system: A549-T12 (Taxol-resistant A549); experiment: Cytotoxicity by counting cells after 72 h, Taxol-resistant cells; format: cell-based, human
Procedure: (§1) Human non-small cell lung carcinoma cells, A549, were maintained in RPMI 1640 containing 10% fetal bovine serum and 1% penicillin-streptomycin (Gibco Laboratories, Grand Island N.Y.) at 37° C. in 7% CO2. The Taxol-resistant cell line A549-T12 was selected for resistance to Taxol and maintained in a final concentration of 12 nM drug (21). Human ovarian carcinoma cells SKOV3 and the MDR variant SKVBL (obtained from Dr. V. Ling) were maintained in α-mem plus ribonucleotides, deoxynucleotides, 15% fetal bovine serum and 1% penicillin-streptomycin (Gibco Laboratories) at 37° C. in 5% CO2. SKVBL cells were maintained in […] vinblastine (Sigma Chemical Co.).
(§2) Taxol-resistant and sensitive cell lines were seeded into 12-well plates at a density of 5×10^4 cells per well and allowed a period of 12 h for attachment prior to treatment. Cells were exposed to 10-fold serial dilutions of each compound (10^-10 to 10^-6 M) for 72 h. Cells were then trypsinized and counted (Coulter counter model ZF0031, Coulter Corp., Miami, Fla.). The IC50 was determined by plotting cell number against log of the drug concentration and this was used to determine the concentration of compound resulting in 50% growth inhibition compared to untreated cells. Each cell line was assayed in a minimum of 3 independent experiments with each compound and the results expressed as the mean IC50.
(§3) The cytotoxic efficacy of eleutherobin and its derivatives (FIG. 6) was evaluated in two drug sensitive human cancer cell lines and their Taxol-resistant counterparts. The results are summarized in Table I in order of decreasing potency. […] The Taxol-resistant cell line SKVBL overexpresses high levels of P-glycoprotein (22). […] The only difference between the two agents is the enantiomeric relationship in the carbohydrate (2'-acetylarabinose) sector (FIG. 6). […] This cell line expressed high levels of MDR1 resulting in Taxol-resistance equal or greater than 1666 -fold compared to the Taxol-sensitive SKOV3 cell line.
(§4) ^a Cytotoxicity determined by counting cells after 72 h drug exposure.

[3] = system: Human ovarian carcinoma cells SKOV3; experiment: Cytotoxicity by counting cells after 72 h, Taxol-sensitive cells; format: cell-based; settings: SK-OV-3, 72 h
Procedure: as §1, §2, §4

[4] = system: SKVBL (MDR variant of SKOV3); experiment: Cytotoxicity by counting cells after 72 h, MDR variant cells; format: cell-based, human
Procedure: as §1, §2, §3, §4

[5] = system: tubulin / microtubule protein; experiment: Tubulin polymerization by turbidity at 350 nm in the absence of GTP; format: biochemical, calf; settings: 10 μM, relative to eleutherobin
Procedure: Eleutherobin and its derivatives were synthesized as described (18,19). Taxol was obtained from the Drug Development Branch, National Cancer Institute (Bethesda, Md.). All compounds were dissolved in dimethyl sulfoxide (Sigma Chemical Co., St. Louis, Mo.) at stock concentrations of 5 mM and stored at -20° C. All control samples contained an equal volume of DMSO. GTP was obtained from Sigma Chemical Co. And dissolved in sterile distilled water at a concentration of 10 mM and stored at -20° C. Microtubule protein was purified from calf brains by two cycles of temperature-dependent assembly and disassembly (20) and stored in liquid nitrogen prior to use. The anti-mouse β-tubulin monoclonal antibody T-4026 was obtained from Sigma Chemical Co.
The ability of each compound to polymerize tubulin was evaluated by recording the change in turbidity of microtubule protein at 350 nm for 80 min in a spectrophotometer (UVIKON, Research Instruments Int., SD, Calif.). One mg of purified microtubule protein was diluted in assembly buffer containing 0.1 M MES, 1 mM EGTA, 0.5 mM MgCl2 and 3 M glycerol, pH 6.6. All compounds were evaluated at a concentration of 10 μM at 37° C. […] Microtubule stability was assessed by the addition of 10 mM Ca^++. changes from t=0-10 min were used to calculate initial slopes from the linear portion of each curve. These values were used to calculate the activity of each compound (relative to the activity of Taxol which was assigned a value of 100%).
The polymerization activity of these compounds was also assessed by determining the slope of the linear portion of each curve at A350 nm (t=0-10 min), and expressing this relative to Taxol (which was assigned a value of 100% (FIG. 8). The order of activity of eleutherobin and derivatives using this method, corroborates the results obtained from cytotoxicity studies.

[6] = system: cellular microtubules, NIH 3T3 cells; experiment: Microtubule bundle formation by immunofluorescence; format: cell-based; settings: 2 μM, 5.5 h, 37 °C
Procedure: FIG. 9 immunofluorescence images NIH3T3 cells labeled with β-tubulin antibody following exposure to different drugs. A)DMSO; B)2 μM Taxol; C)2 μM eleutherobin; D)2 μM neo-eleutherobin; E)2 μM SKBII.294; F)2 μM SKBIII.13.
Illustrates the effects of eleutherobin and its derivatives on the morphology of cellular microtubules following exposure of cells to 2 μM of each compound for 5.5 h at 37° C. […] The number of micotic asters correlated with the extent of microtubule bundling in interphase cells.
(§5) NIH 3T3 cells were grown to subconfluency on glass converslips in 35 mm plastic petri dishes. Cells were exposed to 2 μM of Taxol and each of the experimental compounds for 5.5 h at 37° C., rinsed twice in PBS and extracted with 0.5% Triton-X-100 in microtubule stabilizing buffer (PEM) (100 mM PIPES, 2 mM EGTA and 2 mM MgCl2, pH 6.8) for 4 min. Following a wash in PEM, the cells were fixed for 40 min at room temperature in 3% formaldehyde in PEM followed by incubation in 0.1 M glycine in PBS for 10 min and washing (four times) in PEM containing 5 μM EGTA. Following blocking in 20% normal goat serum (NGS) for 30 min at room temperature, cells were incubated for 1 h at 37° C. with a 1:100 dilution of β-tubulin mAb diluted in 10% NGS, washed twice in 1% BSA, once in PBS and three times in 1% BSA. Cells were then incubated in a 1:200 dilution of the secondary fluorophore antibody, IndocarbocyanineCY3 (Jackson Immunoresearch Laboratories Inc., Pa.) in 20% NGS for 20 min at room temperature. Finally cells were washed three times in 1% BSA and the dried slides mounted in 30% glycerol in PBS containing […]-phenylene diamine (1 mg/ml). Fixed slides were examined using a Zeiss Axioskop microscope.

[7] = Solubility compared to eleutherobin; format: physicochemical
P-glycoprotein = P-glycoprotein substrate behaviour inferred from resistance of SKVBL cells; format: cell-based, human
Procedure: as §1, §2, §3

[8] = SKBII.294 and 298 structures compared; cited from earlier work
[9] = Overall biological activity, all parameters tested
Procedure: as §2
The ability of each compound to polymerize tubulin was evaluated by recording the change in turbidity of microtubule protein at 350 nm for 80 min in a spectrophotometer (UVIKON, Research Instruments Int., SD, Calif.). One mg of purified microtubule protein was diluted in assembly buffer containing 0.1 M MES, 1 mM EGTA, 0.5 mM MgCl2 and 3 M glycerol, pH 6.6. All compounds were evaluated at a concentration of 10 μM at 37° C. GTP was used at a final concentration of 1 mM. Microtubule stability was assessed by the addition of 10 mM Ca^++. changes from t=0-10 min were used to calculate initial slopes from the linear portion of each curve. These values were used to calculate the activity of each compound (relative to the activity of Taxol which was assigned a value of 100%).
as §5

Compound | IC50 [1] [nM] | cytotoxicity (in words) [1] | fold resistance relative to the parental cell line ([2]; A549-T12 vs A549, 4320 min) [fold] | IC50 ([2]; Homo sapiens, Lung Carcinoma A549, Resistant (A549-T12), 72 h, mean of at least three independent experiments) [nM] | IC50 [3] [nM] | IC50 ([4]; Homo sapiens, SK-OV-3, Ovarian Carcinoma SKOV3, Resistant (SKVBL), 72 h, mean of at least three independent experiments) [nM] | cross-resistance in SKVBL (in words) ([4]; MDR1 expressing cells, high P-glycoprotein) | fold resistance relative to the parental cell line ([4]; SKVBL vs SKOV3) [fold] | microtubule polymerization activity relative to eleutherobin [5] [%] | microtubule bundle formation (in words) [6] | solubility (in words) [7] | P-glycoprotein substrate (in words) (P-glycoprotein) | activity reported for compounds with the same structures (in words) [8] | biological activity (in words) [9]
CO[C@]12C=C[C@](C)(O1)[C@@H](OC(=O)/C=C/c1cn(C)cn1)C[C@H]1C(C)=CC[C@H](C(C)C)[C@H]1C=C2COC(C)=O [SKBII.294] | 152 | less cytotoxic than either eleutherobin or neo-eleutherobin; also recorded: more cytotoxic than to SKBII.296 | 1.1 | 162 | 307 | 1040 | essentially not cross-resistant | 3.4 | 54 | reduced bundle formation in cultured cells; also recorded: induced less bundle formation than neo-eleutherobin | reduced solubility compared to eleutherobin | considerably less attractive for P-glycoprotein compared to eleutherobin and neo-eleutherobin | equal activity | –
CO[C@]12C=C[C@](C)(O1)[C@@H](OC(=O)/C=C/c1cn(C)cn1)C[C@H]1C(C)=CC[C@H](C(C)C)[C@H]1C=C2CO [SKBII.298] | 1060 | considerably less cytotoxic (in the μM range) | – | – | > 5000 | – | – | – | 36 | induced less bundle formation than neo-eleutherobin | reduced solubility compared to eleutherobin | – | equal activity | the least active compound in this sub-group

Reference: US6172205A, “Synthetic process toward total synthesis of eleutherobin and its analogues and uses thereof” (The Trustees of Columbia in the City of New York, priority 1998, dated 2001)
